# From patent US8946199B2, “Co-administration of steroids and Zoledronic acid to prevent and treat side effects from Zoledronic acid infusion” (priority 2010, dated 2015)
# Legend:
# [1] = patients with osteoporosis; Zoledronic Acid alone, 3 patients
# Protocol: In theory, co-administration of a steroid for a short duration could decrease inflammation and therefore the incidence of ONJ. […] A study comparing the incidence of PDS with Zoledronic acid with a Zoledronic Acid and steroid combination is, however, feasible and such a study has been undertaken.
# Eight patients with osteoporosis were treated with Zoledronic Acid alone (3 patients) or with the combination of steroids (oral prednisone, 3, and intravenous prednisolone, 2) with Zoledronic Acid.
# [2] = administration of Zometa; syndrome of fever, nausea, bone pain, arthralgia, myalgia, chills; cited from earlier work
# [3] = in vivo; cited from earlier work
structure (smiles),measurement,setting,value
O=P(O)(O)C(O)(Cn1ccnc1)P(=O)(O)O [Zoledronic Acid],patients who suffered from PDS,[1],All three
same,patients affected by post-dosing syndrome (PDS),[2],≤ 44%
same,t1/2α,[3],14.4 min
